Results taken from patent US12275721B2, “Indazole carboxamides as kinase inhibitors” (BRISTOL-MYERS SQUIBB COMPANY, priority 2019, dated 2025).

What was measured:
[1] = target: T1, His-GST-TVMV-hRIPK1(1-324) (Homo sapiens, UniProt Q13546); experiment: RIPK1 HTRF Binding Assay; settings: HTRF probe displacement, 1 h at rt
T1 construct: 1 nM His-GST-TVMV-hRIPK1(1-324) in FRET Buffer; made in house; host or cells: Spodoptera frugiperda (Sf9) insect cells, baculovirus (Bac-to-Bac)
T1 sequence (Q13546 1-324): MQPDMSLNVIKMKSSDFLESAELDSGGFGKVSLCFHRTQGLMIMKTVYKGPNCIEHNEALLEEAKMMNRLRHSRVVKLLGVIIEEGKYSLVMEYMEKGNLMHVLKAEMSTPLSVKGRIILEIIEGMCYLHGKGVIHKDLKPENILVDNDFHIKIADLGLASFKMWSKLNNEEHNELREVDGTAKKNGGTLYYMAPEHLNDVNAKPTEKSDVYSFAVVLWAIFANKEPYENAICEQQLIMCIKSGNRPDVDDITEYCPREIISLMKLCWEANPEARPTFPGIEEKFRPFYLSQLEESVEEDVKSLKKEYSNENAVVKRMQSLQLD
Description: A solution was prepared containing 0.2 nM Anti GST-Tb (Cisbio, 61GSTTLB), 90.6 nM probe and 1 nM His-GST-TVMV-hRIPK1(1-324) in FRET Buffer (20 mM HEPES, 10 mM MgCl2, 0.015% Brij-35, 4 mM DTT, 0.05 mg/mL BSA). Using Formulatrix Tempest, the detection antibody/enzyme/probe solution ([…]) was dispensed into wells of a 1536 plate (Black Low Binding Polystyrene 1536 Plate (Corning, 3724)) containing 10 nL of compounds of interest at appropriate concentration in DMSO. The plate was incubated at rt for 1 h. FRET was measured using the EnVision plate reader (Excitation: 340 nm, Emission: 520 nm/[…]). Total signal (0% inhibition) was calculated from wells containing 10 nL DMSO only.
Cloning and Baculovirus Expression of RIPK1 Construct
The coding region of human RIPK1(1-324) flanked by NdeI site at 5′ end and stop codon TGA and XhoI site at 3′ end was codon optimized and gene synthesized at GenScript USA Inc. (Piscataway, NJ) and subcloned into a modified pFastBac1 vector (Invitrogen, Carlsbad, CA) with N-terminal His-GST-TVMV tag, to generate His-GST TVMV-hRIPK1(1-324)-pFB. The fidelity of the synthetic fragment was confirmed by sequencing. Baculovirus was generated for the construct using the Bac-to-Bac baculovirus expression system (Invitrogen) according to the manufacturer's protocol. Briefly, recombinant bacmid was isolated from transformed DH10Bac E. coli competent cells 20 (Invitrogen) and used to transfect Spodoptera frugiperda (Sf9) insect cells (Invitrogen). Baculovirus was harvested 72 hours post transfection and a virus stock was prepared by infecting fresh Sf9 cells at a 1/1000 (v/v) ratio for 66 hours. For large scale protein production, Sf9 cells (Expression System, Davis, CA) grown in ESF921 insect medium (Expression System) at 2×10^6 cells/ml were infected with virus stock at a 1/100 (v/v) ratio for 66 hours. The production was carried out either at a 10 L scale in a 22 L cellbag (GE Healthcare Bioscience, Pittsburgh, PA) or at a 20 L scale in a 50 L cellbag using WAVE-Bioreactor System 20/50 (GE Healthcare Bioscience). The infected cells were harvested by centrifugation at 2000 rpm for 20 min at 4° C. in a SORVALL® RC12BP centrifuge. The cell pellets was stored at −70° C. before protein was purified.
Purification of His-GST-TVMV-hRIPK1(1-324)
RIPK1 containing cell paste was resuspended in 50 mM Tris pH 7.5, 150 mM NaCl, 10 mM imidazole, 5% glycerol, 5 mM MgSO4, 1 mM TCEP, 25 U/ml Benzonase, and Complete Protease Inhibitor tablets (1/50 ml, Roche Diagnostics, Indianapolis, IN). The cells were lysed by nitrogen cavitation using an unstirred pressure vessel @ 525 PSI (Parr Instrument Company, Moline, IL). The suspension was clarified by centrifugation at 136,000×g for 40 min, at 4° C. The lysate was decanted from the pellet and passed through a 5 ml NiNTA Superflow cartridge (Qiagen, Valencia, CA) using an AKTA Pure (GE Healthcare). Column was eluted with 10 CV linear gradient into 50 mM Tris 7.5, 150 mM NaCl, 500 mM imidazole, 5% glycerol, 1 mM TCEP. Peak fractions were pooled and loaded directly onto 5 ml GSTrap 4B column (GE Healthcare). Column was washed with 50 mM Tris 7.0, 150 mM NaCl, […], 1 mM DTT and eluted in 10 CV linear gradient into 50 mM Tris 8.0, 150 mM NaCl, 20 mM reduced glutathione, 50% glycerol, 1 mM DTT. Fractions identified by SDS-PAGE as containing RIPK1 were pooled and concentrated using 30 kDa MWCO spin concentrators (Amicon Ultra-15, Millipore, Billerica, MA) and loaded onto a HiLoad 26/600 Superdex 200 column (GE Healthcare) equilibrated in 25 mM Tris 7.5, 150 mM NaCl, 2 mM TCEP, […]. The RTPK1 protein eluted as a dimer off the SEC column. The yield was ˜8 mg/L with a purity […] as determined by Coomassie stain SDS-PAGE gel analysis. […] Protein was aliquoted and stored at −80° C. Using these assays, the IC50 values of the following compounds were determined.

[2] = test system: MLKL phosphorylation in HT29-L23 human colorectal adenocarcinoma cells; experiment: MLKL Phosphorylation High-Content Assay; format: cell-based; settings: Homo sapiens, necroptosis induced with TNFα, SMAC mimetic and Z-VAD, 6 h, read-out: pMLKL (IC50)
Description: MLKL Phosphorylation High-Content Assay
HT29-L23 human colorectal adenocarcinoma cells were maintained in RPMI 1640 medium containing 10% heat-inactivated FBS, 1% Penicillin-Streptomycin and 10 mM HEPES. Cells were seeded at 2,000 cells/well in 384 well tissue culture-treated microplates (Greiner #781090-3B) and incubated at 37° C. (5% CO2/95% O2) for 2 d. On the day of the assay, the cells were treated with test compounds at final concentrations of 6.25 to 0.106 μM for 30 min at 37° C. (5% CO2/95% O2). Necroptopsis was induced using a mixture of human TNFα (35 ng/mL) (Peprotech #300-01A), SMAC mimetic (from US 2015/0322111 A1) (700 nM) and Z-VAD (140 nM) (BD pharmingen #51-6936). Following 6 h incubation at 37° C. (5% CO2/95% O2), the cells were fixed with 4% formaldehyde (ACROS 11969-0010) for 15 min at rt, then permeabilized with phosphate buffered saline (PBS) containing 0.2% Triton-X-100 for 10 min. MLKL phosphorylation was detected using anti-MLKL (phospho S358) antibody (Abcam #ab187091) (1:1000 dilution in Blocking Buffer [PBS supplemented with 0.1% BSA]) with ON incubation at 4° C. After washing three times in PBS, goat anti-rabbit Alexa-488 (1:1000 dilution) (Life Technologies, A1 1008) and Hoechst 33342 (Life Technologies, H3570) (1:2000 dilution) in Blocking Buffer were added for 1 h at rt. Following another three cycles of washes in PBS, the microplates were sealed, and cellular images were acquired in the Cellomics ArrayScan VTI high-content imager equipped with an X1 camera. Fluorescent images were taken using a 10× objective and the 386-23 BGRFRN_BGRFRN and 485-20 BGRFRN_BGRFRN filter sets, for nuclei and MLKL phosphorylation, respectively. The image sets were analyzed using the Compartmental Analysis Bioapplication software (Cellomics). The level of MLKL phosphorylation was quantified as MEAN_CircRingAvglntenRatio. The maximal inhibitory response was defined by the activity induced by Necls (CAS #: 852391-15-2, 6.25 μm). The IC50 value was defined as the concentration of compound that produces 50% of the maximal inhibition. The data were fitted using the 4-parameter logistic equation to calculate the IC50 and Ymax values.

Structure (SMILES) | IC50 [1] [nM] | IC50 [2] [nM]
CNC(=O)c1n[nH]c2cc(-c3nc(C)c(C(=O)NCc4cc(C(F)(F)F)ccc4F)s3)ccc12 [Example 18, N-(2-fluoro-5-(trifluoromethyl)benzyl)-4-methyl-2-(3-(methylcarbamoyl)-1H-indazol-6-yl)thiazole-5-carboxamide] | 15 | 9
CNC(=O)c1n[nH]c2cc(-c3nc(C)c(C(=O)NC(C)c4cc(OC(F)(F)F)ccc4F)s3)ccc12 (stereo not shown) [Example 19, N-(1-(2-fluoro-5-(trifluoromethoxy)phenyl)ethyl)-4-methyl-2-(3-(methylcarbamoyl)-1H-indazol-6-yl)thiazole-5-carboxamide] | 13 | 19
CNC(=O)c1n[nH]c2cc(-c3nc(C(=O)NCc4cc(OC(F)(F)F)ccc4F)cs3)ccc12 [Example 20, N-(2-fluoro-5-(trifluoromethoxy)benzyl)-2-(3-(methylcarbamoyl)-1H-indazol-6-yl)thiazole-4-carboxamide] | 400 | 810
CNC(=O)c1n[nH]c2cc(-c3nc(C(=O)NCCC(C)c4ccccc4)cs3)ccc12 (stereo not shown) [Example 21, 2-(3-(methylcarbamoyl)-1H-indazol-6-yl)-N-(3-phenylbutyl)thiazole-4-carboxamide] | 170 | 810
CNC(=O)c1n[nH]c2cc(-c3nc(C(=O)NCC[C@@H](O)c4ccc(Cl)cc4)cs3)ccc12 [Example 22, (R)-N-(3-(4-chlorophenyl)-3-hydroxypropyl)-2-(3-(methylcarbamoyl)-1H-indazol-6-yl)thiazole-4-carboxamide] | 330 | 1200
CNC(=O)c1n[nH]c2cc(-c3nc(C(=O)NCC[C@H](O)c4ccc(Cl)cc4)cs3)ccc12 [Example 23, (S)-N-(3-(4-chlorophenyl)-3-hydroxypropyl)-2-(3-(methylcarbamoyl)-1H-indazol-6-yl)thiazole-4-carboxamide] | 120 | 1600
CNC(=O)c1n[nH]c2cc(-c3ncc(C(=O)NCCC(C)c4ccccc4)s3)ccc12 (stereo not shown) [Example 24, 2-(3-(methylcarbamoyl)-1H-indazol-6-yl)-N-(3-phenylbutyl)thiazole-5-carboxamide] | 280 | 700
CNC(=O)c1n[nH]c2cc(-c3ncc(C(=O)NCC[C@@H](O)c4ccc(Cl)cc4)s3)ccc12 [Example 25, (R)-N-(3-(4-chlorophenyl)-3-hydroxypropyl)-2-(3-(methylcarbamoyl)-1H-indazol-6-yl)thiazole-5-carboxamide] | 280 | 1600
CNC(=O)c1n[nH]c2cc(-c3nc(C)c(C(=O)NCc4cc(OC(F)(F)F)ccc4F)n3C)ccc12 [Example 26, 6-(5-((2-fluoro-5-(trifluoromethoxy)benzyl)carbamoyl)-1,4-dimethyl-1H-imidazol-2-yl)-N-methyl-1H-indazole-3-carboxamide] | 30 | 49
CNC(=O)c1n[nH]c2cc(-c3nc(C)c(C(=O)NCCC(C)c4ccccc4)n3C)ccc12 (stereo not shown) [Example 27, 6-(1,4-dimethyl-5-((3-phenylbutyl)carbamoyl)-1H-imidazol-2-yl)-N-methyl-1H-indazole-3-carboxamide] | 220 | 470
CNC(=O)c1n[nH]c2cc(-c3nc(C)c(C(=O)NCC[C@@H](O)c4ccc(Cl)cc4)n3C)ccc12 [Example 28, (R)-6-(5-((3-(4-chlorophenyl)-3-hydroxypropyl)carbamoyl)-1,4-dimethyl-1H-imidazol-2-yl)-N-methyl-1H-indazole-3-carboxamide] | 460 | 2600
CNC(=O)c1n[nH]c2cc(-c3nc(C)c(C(=O)NCC[C@H](O)c4ccc(Cl)cc4)n3C)ccc12 [Example 29, (S)-6-(5-((3-(4-chlorophenyl)-3-hydroxypropyl)carbamoyl)-1,4-dimethyl-1H-imidazol-2-yl)-N-methyl-1H-indazole-3-carboxamide] | 1900 | 3300
CNC(=O)c1n[nH]c2cc(-c3nc(C)c(C(=O)NCc4cc(C(F)(F)F)ccc4F)n3C)ccc12 [Example 30, 6-(5-((2-fluoro-5-(trifluoromethyl)benzyl)carbamoyl)-1,4-dimethyl-1H-imidazol-2-yl)-N-methyl-1H-indazole-3-carboxamide] | 100 | 150
CNC(=O)c1n[nH]c2cc(-c3nc(C(=O)NCc4cc(OC(F)(F)F)ccc4F)c(C)n3C)ccc12 [Example 31, 6-(4-((2-fluoro-5-(trifluoromethoxy)benzyl)carbamoyl)-1,5-dimethyl-1H-imidazol-2-yl)-N-methyl-1H-indazole-3-carboxamide] | 66 | 600
